From patent publication US9980943B2, “Methods of treating muscular dystrophy” (BOARD OF REGENTS OF THE NEVADA SYSTEM OF HIGHER EDUCATION, …, priority 2013, dated 2018)

Columns and labels:
Assay type in all cases: cell-based, mouse
[1] = system: α7 integrin (LacZ reporter in α7βgal+/− myoblasts); assay: Myoblast α7+/LacZ integrin FDG assay (Burkin assay in myoblasts, 96-well); conditions: α7+/LacZ myoblasts, 96-well
[2] = system: α7 integrin (LacZ reporter in α7+/LacZ myotubes); assay: Myotube α7 integrin FDG assay (Burkin assay in myotubes, 96-well); conditions: myotubes
[3] = system: β-galactosidase in CMV-LacZ C2C12 myotubes; assay: CMV-LacZ secondary screen in C2C12 myotubes (β-Gal stabilizing assay); conditions: for CMV-LACZ in Myotubes, signal relative to DMSO: C2C12 CMV-LacZ myotubes, fold relative to DMSO; for CMV-LACZ in Myotubes (β-galactosidase activity relative to DMSO): CMV-LacZ C2C12 myotubes, 96-well format
Outline: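 CMV-LacZ C2C12 line (clonal, FDG-screened); myoblasts/myotubes dosed 0.5–40 μM (0.5, 1, 5, 10, 20, 40 μM); n=2 per point; β-gal stabilization read-out.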

SMILES: Cc1ccc(N(CCC(=O)O)S(=O)(=O)c2cccc(C(F)(F)F)c2)cc1 [MLS000775793-01]
- Burkin Assay in Myoblasts, value relative to DMSO ([1]; 0.5 uM): 1.103
- Burkin Assay in Myoblasts, value relative to DMSO ([1]; 1 uM): 1.076
- Burkin Assay in Myoblasts, value relative to DMSO ([1]; 5 uM): 1.109
- Burkin Assay in Myoblasts, value relative to DMSO ([1]; 10 uM): 1.076
- Burkin Assay in Myoblasts, value relative to DMSO ([1]; 20 uM): 0.9292
- Burkin Assay in Myoblasts, value relative to DMSO ([1]; 40 uM): 0.9895
- Burkin Assay in Myotubes (signal relative to DMSO) ([2]; 0.5 uM): 0.9391
- Burkin Assay in Myotubes (signal relative to DMSO) ([2]; 1 uM): 0.8833
- Burkin Assay in Myotubes (signal relative to DMSO) ([2]; 5 uM): 0.8722
- Burkin Assay in Myotubes (signal relative to DMSO) ([2]; 10 uM): 0.6224
- Burkin Assay in Myotubes (signal relative to DMSO) ([2]; 20 uM): 0.9965
- Burkin Assay in Myotubes (signal relative to DMSO) ([2]; 40 uM): 0.9508
- CMV-LACZ in Myotubes, signal relative to DMSO ([3]; 5 uM): 0.855
- CMV-LACZ in Myotubes, signal relative to DMSO ([3]; 10 uM): 1.012
- CMV-LACZ in Myotubes, signal relative to DMSO ([3]; 20 uM): 0.9323
- CMV-LACZ in Myotubes, signal relative to DMSO ([3]; 40 uM): 1.021

SMILES: O=C(NCc1ccccc1)C(c1ccc(O)cc1)N(C(=O)Cn1nnc(-c2cccs2)n1)c1ccc2c(c1)OCCO2 (stereo not shown) [MLS000123454-01]
- Burkin Assay in Myoblasts, value relative to DMSO ([1]; 0.5 uM): 0.8934
- Burkin Assay in Myoblasts, value relative to DMSO ([1]; 1 uM): 0.8234
- Burkin Assay in Myoblasts, value relative to DMSO ([1]; 5 uM): 0.7862
- Burkin Assay in Myoblasts, value relative to DMSO ([1]; 10 uM): 0.8621
- Burkin Assay in Myoblasts, value relative to DMSO ([1]; 20 uM): 1.519
- Burkin Assay in Myoblasts, value relative to DMSO ([1]; 40 uM): 1.013
- Burkin Assay in Myotubes (signal relative to DMSO) ([2]; 0.5 uM): 1.067
- Burkin Assay in Myotubes (signal relative to DMSO) ([2]; 1 uM): 0.8963
- Burkin Assay in Myotubes (signal relative to DMSO) ([2]; 5 uM): 1.047
- Burkin Assay in Myotubes (signal relative to DMSO) ([2]; 10 uM): 1.083
- Burkin Assay in Myotubes (signal relative to DMSO) ([2]; 20 uM): 0.6841
- Burkin Assay in Myotubes (signal relative to DMSO) ([2]; 40 uM): 0.8852
- CMV-LACZ in Myotubes (β-galactosidase activity relative to DMSO) ([3]; 5 uM): 0.9353
- CMV-LACZ in Myotubes (β-galactosidase activity relative to DMSO) ([3]; 10 uM): 0.9323
- CMV-LACZ in Myotubes (β-galactosidase activity relative to DMSO) ([3]; 20 uM): 0.8796
- CMV-LACZ in Myotubes (β-galactosidase activity relative to DMSO) ([3]; 40 uM): 1.055

SMILES: CC(NC(=O)c1cn(C)c2ccc(S(=O)(=O)N3CCCC3)cc2c1=O)c1ccccc1 (stereo not shown) [MLS000913052-01]
- Burkin Assay in Myoblasts, value relative to DMSO ([1]; 0.5 uM): 1.116
- Burkin Assay in Myoblasts, value relative to DMSO ([1]; 1 uM): 1.038
- Burkin Assay in Myoblasts, value relative to DMSO ([1]; 5 uM): 1.076
- Burkin Assay in Myoblasts, value relative to DMSO ([1]; 10 uM): 1.067
- Burkin Assay in Myoblasts, value relative to DMSO ([1]; 20 uM): 1.113
- Burkin Assay in Myoblasts, value relative to DMSO ([1]; 40 uM): 1.202
- Burkin Assay in Myotubes (signal relative to DMSO) ([2]; 0.5 uM): 1.073
- Burkin Assay in Myotubes (signal relative to DMSO) ([2]; 1 uM): 0.9014
- Burkin Assay in Myotubes (signal relative to DMSO) ([2]; 5 uM): 1.055
- Burkin Assay in Myotubes (signal relative to DMSO) ([2]; 10 uM): 1.013
- Burkin Assay in Myotubes (signal relative to DMSO) ([2]; 20 uM): 0.9725
- Burkin Assay in Myotubes (signal relative to DMSO) ([2]; 40 uM): 0.8287
- CMV-LACZ in Myotubes, signal relative to DMSO ([3]; 5 uM): 1.115
- CMV-LACZ in Myotubes, signal relative to DMSO ([3]; 10 uM): 1.287
- CMV-LACZ in Myotubes, signal relative to DMSO ([3]; 20 uM): 0.9154
- CMV-LACZ in Myotubes, signal relative to DMSO ([3]; 40 uM): 0.92

SMILES: COC(=O)c1ccccc1NC(=O)c1cc[n+]([O-])cc1 [MLS001167169-01]
- Burkin Assay in Myoblasts, signal relative to DMSO ([1]; 0.5 uM): 1.032
- Burkin Assay in Myoblasts, signal relative to DMSO ([1]; 1 uM): 0.8858
- Burkin Assay in Myoblasts, signal relative to DMSO ([1]; 5 uM): 0.9547
- Burkin Assay in Myoblasts, signal relative to DMSO ([1]; 10 uM): 0.9378
- Burkin Assay in Myoblasts, signal relative to DMSO ([1]; 20 uM): 0.8133
- Burkin Assay in Myoblasts, signal relative to DMSO ([1]; 40 uM): 0.9062
- Burkin Assay in Myotubes, α7 integrin LacZ reporter signal relative to DMSO ([2]; 0.5 uM): 0.8925
- Burkin Assay in Myotubes, α7 integrin LacZ reporter signal relative to DMSO ([2]; 1 uM): 0.9375
- Burkin Assay in Myotubes, α7 integrin LacZ reporter signal relative to DMSO ([2]; 5 uM): 1.041
- Burkin Assay in Myotubes, α7 integrin LacZ reporter signal relative to DMSO ([2]; 10 uM): 0.9696
- Burkin Assay in Myotubes, α7 integrin LacZ reporter signal relative to DMSO ([2]; 20 uM): 1.3902
- Burkin Assay in Myotubes, α7 integrin LacZ reporter signal relative to DMSO ([2]; 40 uM): 0.6262
- CMV-LACZ in Myotubes, signal relative to DMSO ([3]; 5 uM): 0.9323
- CMV-LACZ in Myotubes, signal relative to DMSO ([3]; 10 uM): 1.009
- CMV-LACZ in Myotubes, signal relative to DMSO ([3]; 20 uM): 1.085
- CMV-LACZ in Myotubes, signal relative to DMSO ([3]; 40 uM): 1.103
